Literature values, collected in US20140323580A1, “P[…] DOSAGE FORM” (Pharmacorp CC, priority 2009, published 2014).
Structures can show the parent of a compound that is named as a salt. Where two headings read alike, the source gives them in different places.

| SMILES | solubility in alcohol | solubility in chloroform | solubility in ether | solubility in water | solubility in alcohol (HCl) | solubility in chloroform (HCl) | solubility in ether (HCl) | solubility in water (HCl) |
| --- | --- | --- | --- | --- | --- | --- | --- | --- |
| CC(C)(N)Cc1ccccc1 [Phentermine, α,α-dimethyl phenethylamine (phenyl-tertiary-butylamine)] | soluble | soluble | soluble | slightly soluble |  |  |  |  |
| CC(C)(N)Cc1ccccc1 [phentermine HCl] |  |  |  |  | very soluble | very soluble | insoluble | very soluble |
